# Data taken from publication PMC4597613, “Polyhedra structures and the evolution of the insect viruses” (Journal of Structural Biology, 2015).
# What was measured:
# CPV20 polyhedrin = CPV20 polyhedrin (Simulium ubiquitum cypovirus, UniProt Q0MX25); assay: X-ray crystal structure of polyhedra, […] A; assay type: binding; details: nucleotide trapped in crystal from Sf9 cells; pyrimidine region in trimer interface; not well ordered, identity inferred from space and hydrogen bonding
# CPV18 polyhedrin = CPV18 polyhedrin (Operophtera brumata cypovirus 18, UniProt Q30C70); assay: X-ray crystal structure of polyhedra, […] A; assay type: binding; details: nucleotide trapped in crystal from Sf9 cells, purine cluster
# CPV15 polyhedrin = CPV15 polyhedrin (Trichoplusia ni cypovirus 15, UniProt Q9ELS6); details: nucleotide trapped in crystal from Sf9 cells; two ATPs in purine cluster site, one on V3 and V2c, the other at the 2-fold axis
smiles,measurement,setting,value
O=c1ccn([C@@H]2O[C@H](COP(=O)(O)OP(=O)(O)OP(=O)(O)O)[C@@H](O)[C@H]2O)c(=O)[nH]1 [UTP],"X-ray crystal structure of polyhedra, 1.83 A",CPV20 polyhedrin,"The pyridine in CPV20 is not well ordered, but can be identified as UTP"
Nc1ncnc2c1ncn2[C@@H]1O[C@H](COP(=O)(O)OP(=O)(O)OP(=O)(O)O)[C@@H](O)[C@H]1O [ATP],"X-ray crystal structure of polyhedra, 1.48 A","CPV18 polyhedrin; V4 regions of two chains, H154 to phosphates",ATP is supported by two V4 regions from different polypeptide chains
same,"X-ray crystal structure of polyhedra, 1.82 A",CPV15 polyhedrin,leaving space for two ATPs in different conformations to CPV1
Nc1nc2c(ncn2[C@@H]2O[C@H](COP(=O)(O)OP(=O)(O)OP(=O)(O)O)[C@@H](O)[C@H]2O)c(=O)[nH]1 [GTP],"X-ray crystal structure of polyhedra, 1.48 A",CPV18 polyhedrin; V2c and V1,GTP hydrogen bonds with V2c and V1
